The numbers were not newly measured in patent US5948887A, “Polypeptides that include conformation-constraining groups which flank a protein--protein interaction site” (Virginia Commonwealth University, priority 1997, dated 1999), which cites them from elsewhere.

Where a SMILES comes first, the peptide text is derived from it.

The subject of the data set is receptors of sweet tasting papillae. The following applies: comparison value.

As for `COC(=O)[C@H](Cc1ccccc1)NC(=O)[C@@H](N)CC(=O)O` [aspartame] (H-Asp-Phe-OMe), the “times sweeter than sugar” value is listed as 160 times.
